Five molecules from patent publication US20220340629A1, “Myosin Derived Peptides and Related Compounds with Anticoagulant Activities” (THE SCRIPPS RESEARCH INSTITUTE, priority 0001, published 2022) can be followed below.

In series [1] the test system is thrombin generation in human platelet poor plasma with skeletal muscle myosin. Nature of the series: Assay 2A: thrombin generation, recalcification of human platelet poor plasma + myosin. The class given is biochemical. The gist of the method:
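Pooled normal human platelet-poor plasma (30%) preincubated 5 min at 37° C with 50 nM skeletal muscle myosin and peptide in DMSO. Coagulation triggered with 10 mmol/L CaCl2 plus fluorogenic Z-Gly-Gly-Arg-AMC; thrombin generation followed 25 min (ex 360/em 460 nm). IC50 = peptide concentration giving 50% inhibition of thrombin generation.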

The test system of series [2] is thrombin generation in human plasma. In words: Thrombin generation assay in pooled normal human plasma (Examples 3 and 4). The format is biochemical. As to the method: Thrombin generation assay in pooled human plasma: The effect of synthetic peptides on thrombin generation in pooled normal human plasma (George King Bio-medical, Inc., Overland Park, KS) was tested as described (1,11). Briefly, normal human plasma (30 μl) was mixed with CTI, followed by the addition of peptide. Then, tissue factor (TF) (Innovin) (0.5[…] pM final) containing 30 mM Ca^++ in TBSA with fluorogenic thrombin substrate solution (I-1140) (Bachem Americas, Inc., Torrance, Calif.) were added to the plasma to initiate coagulation activation. The first derivative of the time course data for substrate hydrolysis yielded the thrombin generation curve, allowing measurement of thrombin generation during the initiation, propagation and termination phases of thrombin generation and the value for peak thrombin generated.

The target in series [3] is skeletal muscle myosin-supported prothrombin activation by factors Xa and Va (Homo sapiens, UniProt P00742). Nature of the series: Assay 1A: prothrombin activation by factor Xa/factor Va/myosin in purified system. The class given is biochemical, human factors Xa and Va; rabbit skeletal muscle myosin.
Chain of skeletal muscle myosin-supported prothrombin activation by factors Xa and Va (Homo sapiens, UniProt P00742) (P00742 41-179): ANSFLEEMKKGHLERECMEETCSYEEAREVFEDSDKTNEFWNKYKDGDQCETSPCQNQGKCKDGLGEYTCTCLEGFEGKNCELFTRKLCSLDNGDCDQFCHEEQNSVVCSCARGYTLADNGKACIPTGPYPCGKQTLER
Chain of skeletal muscle myosin-supported prothrombin activation by factors Xa and Va (Homo sapiens, UniProt P00742) (P00742 235-488): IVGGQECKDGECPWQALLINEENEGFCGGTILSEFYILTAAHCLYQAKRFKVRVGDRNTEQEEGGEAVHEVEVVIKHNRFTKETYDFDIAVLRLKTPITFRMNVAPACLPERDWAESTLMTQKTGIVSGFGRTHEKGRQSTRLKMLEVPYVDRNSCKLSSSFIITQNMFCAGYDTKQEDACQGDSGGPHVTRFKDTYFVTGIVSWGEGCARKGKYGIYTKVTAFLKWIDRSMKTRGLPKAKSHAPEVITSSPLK
Chain of skeletal muscle myosin-supported prothrombin activation by factors Xa and Va (Homo sapiens, UniProt P00742) (P12259 29-737 partner): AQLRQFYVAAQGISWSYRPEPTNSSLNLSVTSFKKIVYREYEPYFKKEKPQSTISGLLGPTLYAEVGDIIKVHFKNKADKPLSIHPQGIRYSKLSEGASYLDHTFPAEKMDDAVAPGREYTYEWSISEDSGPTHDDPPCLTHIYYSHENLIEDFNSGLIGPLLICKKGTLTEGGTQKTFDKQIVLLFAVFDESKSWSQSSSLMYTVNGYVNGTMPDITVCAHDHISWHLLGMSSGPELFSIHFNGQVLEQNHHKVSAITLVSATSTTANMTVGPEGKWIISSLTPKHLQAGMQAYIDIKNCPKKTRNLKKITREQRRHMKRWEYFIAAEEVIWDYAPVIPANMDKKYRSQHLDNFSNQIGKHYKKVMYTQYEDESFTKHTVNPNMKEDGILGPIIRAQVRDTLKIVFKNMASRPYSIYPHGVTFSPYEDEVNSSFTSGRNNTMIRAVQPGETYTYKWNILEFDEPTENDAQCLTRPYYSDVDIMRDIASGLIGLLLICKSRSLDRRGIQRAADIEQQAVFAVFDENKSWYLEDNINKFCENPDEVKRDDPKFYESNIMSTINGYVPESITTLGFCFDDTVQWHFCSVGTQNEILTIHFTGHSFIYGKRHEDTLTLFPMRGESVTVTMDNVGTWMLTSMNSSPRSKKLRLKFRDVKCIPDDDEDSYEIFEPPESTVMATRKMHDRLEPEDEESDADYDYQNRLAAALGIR
Chain of skeletal muscle myosin-supported prothrombin activation by factors Xa and Va (Homo sapiens, UniProt P00742) (P12259 1574-2224 partner): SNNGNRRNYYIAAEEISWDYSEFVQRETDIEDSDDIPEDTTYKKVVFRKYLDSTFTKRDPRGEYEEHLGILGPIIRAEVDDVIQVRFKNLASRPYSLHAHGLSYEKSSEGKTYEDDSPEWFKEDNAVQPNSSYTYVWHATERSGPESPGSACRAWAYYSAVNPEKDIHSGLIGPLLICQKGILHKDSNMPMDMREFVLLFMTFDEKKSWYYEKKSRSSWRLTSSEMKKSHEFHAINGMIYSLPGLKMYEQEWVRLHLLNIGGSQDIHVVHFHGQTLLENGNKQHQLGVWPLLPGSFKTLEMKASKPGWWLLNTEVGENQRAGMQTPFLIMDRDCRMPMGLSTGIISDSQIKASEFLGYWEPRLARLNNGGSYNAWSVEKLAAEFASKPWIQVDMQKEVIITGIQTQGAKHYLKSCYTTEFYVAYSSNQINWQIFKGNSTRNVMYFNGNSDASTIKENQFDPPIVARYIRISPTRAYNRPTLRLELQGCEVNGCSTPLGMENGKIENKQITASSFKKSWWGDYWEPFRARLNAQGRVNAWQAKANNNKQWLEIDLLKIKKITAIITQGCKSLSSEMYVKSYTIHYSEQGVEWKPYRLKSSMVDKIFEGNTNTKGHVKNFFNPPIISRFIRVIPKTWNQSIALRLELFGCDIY
Series [4] has as its system skeletal muscle myosin-supported prothrombin activation by factors Xa and Va. The description is as above. The format is biochemical, human factors Xa and Va; rabbit skeletal muscle myosin.
A further series deals with factor Xa (Homo sapiens, UniProt P00742). In words: Factor Xa peptide binding assay (immobilized peptide). The note with it: FIG. 2C; read-out: apparent Kd, factor Xa binding to immobilized peptide. As to the method: Factor Xa Peptide Binding Assays: Peptide HC796-835 at 10 μg/mL in sodium bicarbonate (pH 9.3) was coated onto the wells of microtiter plates and then blocked with 5% fatty acid free BSA in TBS. After washing the plate with TBSA containing 5 mM CaCl2, various concentrations of factor Xa in binding buffer consisting of TBSA containing 5 mM CaCl2 were incubated in plate wells for 1 h at room temperature. Following 3 washings, bound factor Xa was detected by adding chromogenic substrate for factor Xa (S2222, Chromogenix, Franklin, Ohio). The absorbance values observed for triplicate noncoated wells lacking peptides served as nonspecific controls for binding and were subtracted from observed values for corresponding duplicate peptide-coated wells. Nonspecific binding of Factor Xa ranged from 5 to 20% of total observed binding in various experiments.
Statistical analysis: Apparent Kd values using saturation binding curve fit were performed using Prism™ 7.0 software (Graph Pad Software Inc., San Diego, Calif.).

The test system of series [5] is thrombin generation in human whole blood. In words: Assay 4: thrombin generation in recalcified human whole blood. The format is biochemical. As to the method:
In addition to purified protein system and human plasma, assays using whole blood (Assay 4) were also performed to examine anti-coagulant activities of the peptides and derivative compounds. In these assays, freshly drawn anticoagulated human whole blood (80 μL aliquot) was incubated with peptide in DMSO or DMSO alone (control) for 5 min at 37° C. Then, fluorogenic thrombin substrate solution (Z-Gly-Gly-Arg-AMC) (I-1140) with 10 mmol/L CaCl2 (final) alone was added to the reaction mixture (total 110 μl) in 96 well plate to initiate coagulation. Thrombin generation was followed continuously for 25 min using SPECTRAmax GEMINI XS fluorometer (Molecular Devices, Sunnyvale, Calif.) with excitation and emission wavelengths set at 360 and 460 nm, respectively. The first derivative of fluorescence versus time was used to produce thrombin generation curves with the correction for substrate consumption and inner filter effect. IC50 were determined using a curve fit program in Prism7.0 (GraphPad Software, San Diego, Calif.).

The target in series [6] is phospholipid-supported prothrombin activation by factors Xa and Va (Homo sapiens, UniProt P00742). In words: Assay 1C: phospholipid vesicle (PC/PS 80%/20%)-supported prothrombin activation. The class given is biochemical.
Chain of phospholipid-supported prothrombin activation by factors Xa and Va (P00742 41-179 limits assumed): as the sequence (P00742 41-179) above
Chain of phospholipid-supported prothrombin activation by factors Xa and Va (P00742 235-488 limits assumed): as the sequence (P00742 235-488) above
Series [7] has as its target T1, cardiac myosin-enhanced prothrombin activation by factors Xa and Va (Homo sapiens, UniProt P00742).
T1 construct: factor Va (5 nM, final) and factor Xa (0.2 nM, final)
Nature of the series: Cardiac myosin-enhanced prothrombin activation. The class given is biochemical. The note with it: peptide 0 to 12.5 μM, cardiac myosin 2 nM, FIG. 17. As to the method:
Varying concentrations of peptide HC796-835 (SEQ ID NO:21), ranging from 0 to 12.5 μM, were incubated with factor Va (5 nM, final) and factor Xa (0.2 nM, final) in Tris buffered saline containing bovine serum albumin (TBSA) plus 5 mM CaCl2 at room temperature in the presence of cardiac myosin (2 nM, final). Thrombin generation was initiated by the addition of prothrombin (0.75 μM) in TB SA containing 5 mM CaCl2. The reaction was quenched by adding EDTA (10 mM final) at 10 min. The rate of thrombin formation was quantified by measuring thrombin concentration as the rate of thrombin substrate hydrolysis. 100% was the value for controls in the absence of added peptides. Each value represents the mean [±SEM] of triplicate determinations.

The nature of series [8]: Metabolite identification after incubation in mouse plasma. The note with it: incubated in mouse plasma, FIG. 8. The format is in vitro ADME.
For series [9], the target named is T2, Human factor Xa (human, UniProt P00742 41-179; P00742 235-488, limits assumed). In words: cell-based or functional assay.
T2 sequence (P00742 41-179 limits assumed, form in doubt, chain 1 of 2): as the sequence (P00742 41-179) above
T2 sequence (P00742 235-488 limits assumed, form in doubt, chain 2 of 2): as the sequence (P00742 235-488) above
Series [10] deals with T2, Human factor Xa. Nature of the series: cell-based or functional assay. This is another data set of the same source.
The mark [11] stands for this setting: human platelet poor plasma 30%, myosin 50 nM, CaCl2 10 mmol/L, read-out: 2A (recalcification +myosin).
The mark [12] stands for this setting: purified system, skeletal muscle myosin, factor Va 5 nM, factor Xa 0.2 nM, prothrombin 0.75 μM, 10 min, read-out: 1A (+myosin).

Where two headings read alike, the source gives them in different places. Non-standard residues stand in square brackets, D forms with d. Residues, ends and D or L forms follow the SMILES beside them. No end group written: not given here. *: point of attachment. Arachidoyl = CCCCCCCCCCCCCCCCCCCC(=O)*; NMeN = CN[C@@H](CC(N)=O)C(=O)O; Nle = CCCC[C@H](N)C(=O)O

T1 sequence (P00742 41-179 limits assumed): as the sequence (P00742 41-179) above
T1 sequence (P00742 235-488 limits assumed): as the sequence (P00742 235-488) above

On to `CC[C@H](C)[C@H](NC(=O)[C@H](C)NC(=O)[C@H](CCC(=O)O)NC(=O)[C@H](CCCNC(=N)N)NC(=O)[C@H](CCCNC(=N)N)NC(=O)[C@H](CCC(=O)O)NC(=O)[C@@H](NC(=O)[C@H](CCSC)NC(=O)[C@H](CCCNC(=N)N)NC(=O)[C@H](CCC(N)=O)NC(=O)[C@H](Cc1ccc(O)cc1)NC(=O)[C@H](CCC(=O)O)NC(=O)[C@@H](NC(=O)[C@H](CCCNC(=N)N)NC(=O)[C@H](C)NC(=O)[C@H](CC(C)C)NC(=O)[C@H](Cc1ccccc1)NC(=O)CNC(=O)[C@H](CCCNC(=N)N)NC(=O)[C@H](CS)NC(=O)[C@H](CCCNC(=N)N)NC(=O)[C@H](C)N)C(C)C)C(C)C)C(=O)N[C@@H](Cc1ccccc1)C(=O)N[C@@H](CS)C(=O)N[C@H](C(=O)N[C@@H](CCC(N)=O)C(=O)N[C@@H](Cc1ccc(O)cc1)C(=O)N[C@@H](CC(N)=O)C(=O)N[C@H](C(=O)N[C@@H](CCCNC(=N)N)C(=O)N[C@@H](CO)C(=O)N[C@@H](Cc1ccccc1)C(=O)N[C@@H](CCSC)C(=O)N[C@@H](CC(N)=O)C(=O)N[C@H](C(=O)N[C@@H](CCCCN)C(=O)N[C@@H](Cc1c[nH]cn1)C(=O)N[C@@H](Cc1c[nH]c2ccccc12)C(=O)N1CCC[C@H]1C(=O)N[C@@H](Cc1c[nH]c2ccccc12)C(N)=O)C(C)C)[C@@H](C)CC)[C@@H](C)CC` [HC796-835] (H-ARCRGFLARVEYQRMVERREAIFCIQYNIRSFMNVKHWPW-NH2), for which the IC50 is 3.8 µM in [1] (human plasma, recalcification, myosin present, read-out: 2A (recalcification +myosin) IC50); around 5.5 µM in [2] (FIG. 3B, peptide 0-25 μM, read-out: IC50, inhibition of thrombin generation in plasma); 1300 nM in series [3] (FIG. 5, read-out: IC50, prothrombin activation by factor Xa/factor Va/myosin in purified system); 1200 nM in series [4] (dose-dependency assays, FIG. 2A, myosin 2 nM, read-out: IC50, inhibition of myosin-supported prothrombin activation). For the same molecule, in series [2] (screened at 25 μM, FIG. 3A), the “inhibition of thrombin generation in human plasma” value is recorded as “significantly inhibited”. Further, the “inhibition of myosin-supported prothrombin activation at 5 μM” value in series [4] (peptide 5 μM, FIG. 1A) is given as “inhibitory, to varying degrees”. Besides, in series [4] (peptide 100 μM, FIG. 1A), the “inhibition of myosin-supported prothrombin activation at 100 μM” value was “inhibited”. On factor Xa, the Kd was 1400 nM. Moreover, the “4 (recalcification) IC50” value in series [5] (recalcification) was “No activity”. Also, the “inhibitory effects on phospholipid-supported prothrombin activation” value in [6] (compared with effects on myosin-supported prothrombin activation) is on record as “not apparent”. Moreover, in series [6] (purified system, phospholipid vesicles), the “1C (+phospholipid)” value is reported as “No activity”. Moreover, in series [7], the “inhibition of cardiac myosin-enhanced prothrombin activation” value is on record as “inhibition”.
`CCCC[C@H](NC(=O)[C@H](Cc1c[nH]c2ccccc12)NC(=O)[C@@H]1CCCN1C(=O)[C@H](Cc1c[nH]c2ccccc12)NC(=O)[C@H](Cc1c[nH]cn1)NC(=O)[C@H](CCCCN)NC(=O)[C@@H](NC(=O)[C@H](CC(N)=O)NC(=O)[C@H](CCCC)NC(=O)[C@H](Cc1ccccc1)NC(=O)[C@H](CO)NC(=O)[C@H](CCCNC(=N)N)NC(=O)[C@@H](NC(=O)[C@H](CC(N)=O)NC(=O)[C@H](Cc1ccc(O)cc1)NC(=O)[C@H](CCC(N)=O)NC(=O)[C@@H](NC(=O)[C@@H](NC(=O)[C@H](Cc1ccccc1)NC(=O)[C@@H](NC(=O)[C@H](C)N)[C@@H](C)CC)[C@@H](C)O)[C@@H](C)CC)[C@@H](C)CC)C(C)C)C(=O)N[C@@H](CCCCN)C(N)=O` [HC179] (H-AIFTIQYNIRSF[Nle]NVKHWPW[Nle]K-NH2; N-terminus assumed): the IC50 was determined as 8.3 µM in series [1] (setting [11]) and 400 nM in series [3] (setting [12]). Further, the “4 (recalcification), result in words” value in series [5] (result in words) was “No activity”.
On to `CCCCCCCCCCCCCCCCCCCC(=O)NCCCC[C@H](NC(=O)[C@H](CCCNC(=N)N)NC(=O)[C@@H](NC(=O)[C@H](CC(N)=O)NC(=O)[C@H](Cc1ccc(O)cc1)NC(=O)[C@H](CCC(N)=O)NC(=O)[C@@H](NC(=O)[C@H](CO)NC(=O)[C@H](Cc1ccccc1)NC(=O)[C@@H](NC(=O)[C@H](C)N)[C@@H](C)CC)[C@@H](C)CC)[C@@H](C)CC)C(=O)N[C@@H](Cc1ccccc1)C(=O)N[C@@H](CCCC)C(=O)N(C)[C@@H](CC(N)=O)C(=O)N[C@H](C(=O)N[C@@H](CCCCN)C(=O)N[C@@H](Cc1c[nH]cn1)C(=O)N[C@@H](Cc1c[nH]c2ccccc12)C(=O)N1CCC[C@H]1C(=O)N[C@@H](Cc1c[nH]c2ccccc12)C(=O)N[C@@H](CCCC)C(=O)N[C@@H](CCCCN)C(=O)N[C@@H](CCCCN)C(=O)N[C@@H](CCCCN)C(=O)N[C@@H](CCCCN)C(=O)N[C@@H](CCCCN)C(N)=O)C(C)C` [SL-1504-074A, AIFSIQYNIRXF(Nle)(N-MeN)VKHWPW(Nle)KKKKK] (H-AIFSIQYNIRK(Arachidoyl)F[Nle][NMeN]VKHWPW[Nle]KKKKK-NH2), for which the IC50 in series [1] (setting [11]) was 1.7 µM; in series [5] (CaCl2 10 mmol/L, read-out: 4 (recalcification)) it was 300 to 4000 nM.
Turning to `CC[C@H](C)[C@H](NC(=O)[C@H](C)N)C(=O)N[C@@H](Cc1ccccc1)C(=O)N[C@@H](CS)C(=O)N[C@H](C(=O)N[C@@H](CCC(N)=O)C(=O)N[C@@H](Cc1ccc(O)cc1)C(=O)N[C@@H](CC(N)=O)C(=O)N[C@H](C(=O)N[C@@H](CCCNC(=N)N)C(=O)N[C@@H](CO)C(=O)N[C@@H](Cc1ccccc1)C(=O)N[C@@H](CCSC)C(=O)N[C@@H](CC(N)=O)C(=O)N[C@H](C(=O)N[C@@H](CCCCN)C(=O)N[C@@H](Cc1c[nH]cn1)C(=O)N[C@@H](Cc1c[nH]c2ccccc12)C(=O)N1CCC[C@H]1C(=O)N[C@@H](Cc1c[nH]c2ccccc12)C(=O)N[C@@H](CCSC)C(=O)N[C@@H](CCCCN)C(N)=O)C(C)C)[C@@H](C)CC)[C@@H](C)CC` [HC060] (H-AIFCIQYNIRSFMNVKHWPWMK-NH2), the IC50 in series [3] (setting [12]) was 1100 nM. The “1C (+phospholipid)” value in [6] (phospholipid vesicle 4 μM, PS 20%/PC 80%, result in words) was “No activity”. Further, the “sites of protease cleavage identified from metabolite identification” value in series [8] is on record as “six”.
Turning to ARCRGFLARVEYQRMVERREAIFCIQYNIRSFMNVKHWPW-NH2 (cysteine pairing not given here, Synthetic 40-mer; also called HC061) [Peptide HC796-835 (human skeletal muscle myosin heavy chain MYH2 residues 796-835)], in the series with Human factor Xa [9], the “IC50, Assay 1A (+myosin): prothrombin activation by factor Xa/factor Va/myosin in purified system” value turned out to be 1.3 µM. Besides, the “IC50, inhibition of myosin-supported prothrombin activation by purified factor Xa, factor Va and Ca++ ions” value in the series with Human factor Xa [10] was determined as 1.2 µM.
